Measured values published in patent US20240300932A1, “N-PHENYLIMINE DERIVATIVE AND PREPARATION METHOD AND USE THEREOF” (Guizhou University, priority 2023, published 2024).

Tests used:
Test in all cases: Post-emergence herbicidal activity test (stem and leaf spray, pot culture)
Type in all cases: in vivo
Conditions in all cases: 3 weeks after spraying
Trifoliumre pensL. = tested on: Trifoliumre pensL.
Outline: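 Rates of 10, 5 and 2.5 g/mu were applied in a single spray-tower treatment to 2–3-leaf plants, thinned to 10 per pot. Formulation: acetone solution, Tween 80, 1.5 L/ha methyl oleate synergist. Weed response assessed after 3 further greenhouse weeks; mean of three experiments.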

Amaranthus retroflexus = tested on: Amaranthus retroflexus
Outline: (§1)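 Foliar spray, 2–3-leaf stage, 10/5/2.5 g/mu; acetone/Tween 80 + methyl oleate 1.5 L/ha. Greenhouse 3 wk, 20–30 °C. Score: fresh-wt control, grade 5 ≥85% … grade 0 <5%.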

Setaria viridis = tested on: Setaria viridis
Outline: as §1

Echinochloa crusgalli = tested on: Echinochloa crusgalli
Outline: as §1

Portulaca oleracea = tested on: Portulaca oleracea
Outline: as §1

Abutilon theophrasti = tested on: Abutilon theophrasti
Outline: as §1

For `O=C1C2=C(CCCC2)C(=O)N1c1cc(OCc2nnc(-c3cccc(I)c3)o2)c(Cl)cc1F` [Compound B11], the “Post-emergence herbicidal activity, Trifoliumre pensL. (grade)” value (Trifoliumre pensL.; dosage 2.5 g/mu) was 5 (Grade 5: the growth control rate is greater than or equal to 85%), the “Post-emergence herbicidal activity, Trifoliumre pensL. (grade)” value (Trifoliumre pensL.; dosage 5 g/mu) was 5 (Grade 5: the growth control rate is greater than or equal to 85%) and the “Post-emergence herbicidal activity, Trifoliumre pensL. (grade)” value (Trifoliumre pensL.; dosage 10 g/mu) was 5 (Grade 5: the growth control rate is greater than or equal to 85%). The “Post-emergence herbicidal activity, A. retroflexus (grade)” value (Amaranthus retroflexus; dosage 2.5 g/mu) was 4 (Grade 4: the growth control rate is greater than or equal to 60% and less than 85%), the “Post-emergence herbicidal activity, A. retroflexus (grade)” value (Amaranthus retroflexus; dosage 5 g/mu) was 5 (Grade 5: the growth control rate is greater than or equal to 85%) and the “Post-emergence herbicidal activity, A. retroflexus (grade)” value (Amaranthus retroflexus; dosage 10 g/mu) was 5 (Grade 5: the growth control rate is greater than or equal to 85%). For the same compound, the “Post-emergence herbicidal activity, S. viridis (grade)” value (Setaria viridis; dosage 2.5 g/mu) was 2 (Grade 2: the growth control rate is greater than or equal to 20% and less than 40%), the “Post-emergence herbicidal activity, S. viridis (grade)” value (Setaria viridis; dosage 5 g/mu) was 3 (Grade 3: the growth control rate is greater than or equal to 40% and less than 60%) and the “Post-emergence herbicidal activity, S. viridis (grade)” value (Setaria viridis; dosage 10 g/mu) was 4 (Grade 4: the growth control rate is greater than or equal to 60% and less than 85%). For the same compound, the “Post-emergence herbicidal activity, E. crusgalli (grade)” value (Echinochloa crusgalli; dosage 2.5 g/mu) was 1 (Grade 1: the growth control rate is greater than or equal to 5% and less than 20%), the “Post-emergence herbicidal activity, E. crusgalli (grade)” value (Echinochloa crusgalli; dosage 5 g/mu) was 2 (Grade 2: the growth control rate is greater than or equal to 20% and less than 40%) and the “Post-emergence herbicidal activity, E. crusgalli (grade)” value (Echinochloa crusgalli; dosage 10 g/mu) was 3 (Grade 3: the growth control rate is greater than or equal to 40% and less than 60%). For the same compound, the “Post-emergence herbicidal activity, P. oleracea (grade)” value (Portulaca oleracea; dosage 2.5 g/mu) was 5 (Grade 5: the growth control rate is greater than or equal to 85%), the “Post-emergence herbicidal activity, P. oleracea (grade)” value (Portulaca oleracea; dosage 5 g/mu) was 5 (Grade 5: the growth control rate is greater than or equal to 85%) and the “Post-emergence herbicidal activity, P. oleracea (grade)” value (Portulaca oleracea; dosage 10 g/mu) was 5 (Grade 5: the growth control rate is greater than or equal to 85%). For the same compound, the “Post-emergence herbicidal activity, A. theophrasti (grade)” value (Abutilon theophrasti; dosage 2.5 g/mu) was 4 (Grade 4: the growth control rate is greater than or equal to 60% and less than 85%), the “Post-emergence herbicidal activity, A. theophrasti (grade)” value (Abutilon theophrasti; dosage 5 g/mu) was 5 (Grade 5: the growth control rate is greater than or equal to 85%) and the “Post-emergence herbicidal activity, A. theophrasti (grade)” value (Abutilon theophrasti; dosage 10 g/mu) was 5 (Grade 5: the growth control rate is greater than or equal to 85%).
